Measurements reported in US8580776B2, “Compositions and methods for treating neurodegenerating diseases” (The Board of Trustees of the University of Illinois, priority 2007, dated 2013).

Columns and labels:
neprilysin (NEP) = assay: QPCR of neprilysin mRNA in brain samples; assay type: in vivo, mice; settings: cortical samples, versus vehicle
Description: (§1) Total cytoplasmic RNA from tissues was isolated using TRIZOL reagent, (Invitrogen/GIBCO); aliquots were converted to cDNA using random hexamer primers, and mRNA levels were estimated by quantitative touchdown PCR (QPCR). PCR conditions were 35 cycles of denaturation at 94° C. for 10 s; annealing at 58-64° C. for 15 s; and extension at 72° C. for 20 s on a Corbett Rotorgene Real-Time PCR unit (Corbett, Australia). PCR was done using Taq DNA Polymerase (Invitrogen), and contained SYBR Green (SybrGreen1 10,000× concentrate, diluted 1:10,000; Molecular Probes, Eugene, Oreg.). Relative mRNA concentrations were calculated from the takeoff point of reactions using manufacturer's software, and were normalized to α-tubulin, β-actin, and glyceraldehyde-3-phosphate dehydrogenase (GDH). Melting curve analysis and agarose gel electrophoresis ensured production of single and corrected size products. The primers used were: […]
Comparative real time RT-PCR (or quantitative PCR, QPCR) was used to measure mRNA levels of the Aβ degrading enzymes neprilysin (Nep) and insulin degrading enzyme (IDE) in brain samples from vehicle and DSP4 treated mice (FIG. 4A). […] To assess the effects of dose, mouse neuronal N2A cells were incubated with increasing does of NA for 24 hr after which NEP activity was measured (FIG. 4D, data is mean±sd and is from n=3 samples). […]

[1] = tested on: tyrosine hydroxylase (TH); assay: QPCR of tyrosine hydroxylase mRNA in DSP4-treated rats; assay type: in vivo, rat
Description: In this experiment, the effects of DSP4 on tyrosine hydroxylase (TH) and IkBα expression were analyzed. Adult rat Sprague Dawley rats were treated with the selective neurotoxin DSP4 to lesion locus ceruleus (LC) noradrenergic neurons and deplete cortical NA levels as described in Example 1.
RNA samples from control or DSP4-treated rats (n=4 each) were converted to cDNA and analyzed by QPCR for relative levels of tyrosine hydroxylase (TH) (FIG. 6A) in the locus ceruleus (LC).
Total cytoplasmic RNA from tissues was prepared from cells using TRIZOL reagent according to manufacturer procedures (Invitrogen/GIBCO); aliquots were converted to cDNA using random hexamer primers, and mRNA levels were estimated by quantitative touchdown PCR (QPCR). Conditions were 35 cycles of denaturation at 94° C. for 10 s; annealing at 58-64° C. for 15 s; and extension at 72° C. for 20 s on a Corbett Rotorgene Real-Time PCR unit (Corbett, Australia). The PCR mastermix contained SYBR Green (1 μl diluted 1:10,000 SybrGreen I 10,000× concentrate, Molecular Probes, Eugene, Oreg.). Relative mRNA concentrations were calculated from the takeoff point of reactions using manufacturer's software. Melting curve analysis and agarose gel electrophoresis were performed to ensure production of single and corrected size products. Relative mRNA values were normalized to housekeeping genes, either α-Tubulin (α-Tub), β-Actin (βAct) or glyceraldehyde-3-phosphate dehydrogenase (GDH). The primers used for QPCR (all listed 5′ to 3′) were: […]
After acclimation (7-10 days), rats received two intraperitoneal injections (one week apart) of either N-(2-chloroethyl)-N-ethyl-2 bromobenzylamine (DSP4, 5 mg/kg) dissolved in PBS or PBS alone (FIG. 6A). Four weeks after the second treatment, the animals were anesthetized with pentobarbital (50 mg/kg i.p.), and placed in a stereotaxic frame (Stoelting, USA) on a heating blanket. Body temperature was maintained at 37±0.5° C. for the time of surgery. […]

BACE1, PSEN1, Adam10 = assay: Western blot and PCR analysis of APP processing enzymes in 9 month-old mice; assay type: in vivo; settings: data not shown
Description: Brain tissue was homogenized in 8M urea. Total protein concentration was determined using the Bradford assay and BSA as standard. Proteins were separated on 8 or 15% SDS page gels, transferred to PVDF membrane and incubated with antibodies: anti-APP^645-694 G369 (1:4000), anti α-tubulin (T-9026, Sigma) (1:5000). Signals were detected using the ECL Kit (Amersham), band intensities calculated using Image J software (ImageJ 1.31V), and normalized to α-tubulin values.
as §1

CCN(CCCl)Cc1ccccc1Br [DSP4, N-(2-chloroethyl)-N-ethyl-2-bromobenzylamine]
reduction of NEP mRNA levels (neprilysin (NEP)): approximately 20% | TH mRNA levels in the LC ([1]; DSP4-treated rats, n=4): 57 % versus control levels | reduction in cortical TH mRNA levels ([1]; not statistically significant, P>0.05): 25% | reduction of LC TH mRNA ([1]; versus control values, n=4): 43% | BACE1, PSEN1, Adam10 mRNA, BACE1 protein, human APP mRNA levels (BACE1, PSEN1, Adam10): did not reveal any significant changes
